Results from publication PMC8839256, “Concept of Fluorescent Transport Activity Biosensor for the Characterization of the Arabidopsis NPF1.3 Activity of Nitrate” (Sensors (Basel, Switzerland), 2022).

Molecular target: T1, NPF1.3 (Arabidopsis thaliana, UniProt Q9LYD5)
T1 construct: full-length cDNA in pOO2-GW; cRNA expressed in Xenopus laevis oocytes
T1 sequence (Q9LYD5 1-481): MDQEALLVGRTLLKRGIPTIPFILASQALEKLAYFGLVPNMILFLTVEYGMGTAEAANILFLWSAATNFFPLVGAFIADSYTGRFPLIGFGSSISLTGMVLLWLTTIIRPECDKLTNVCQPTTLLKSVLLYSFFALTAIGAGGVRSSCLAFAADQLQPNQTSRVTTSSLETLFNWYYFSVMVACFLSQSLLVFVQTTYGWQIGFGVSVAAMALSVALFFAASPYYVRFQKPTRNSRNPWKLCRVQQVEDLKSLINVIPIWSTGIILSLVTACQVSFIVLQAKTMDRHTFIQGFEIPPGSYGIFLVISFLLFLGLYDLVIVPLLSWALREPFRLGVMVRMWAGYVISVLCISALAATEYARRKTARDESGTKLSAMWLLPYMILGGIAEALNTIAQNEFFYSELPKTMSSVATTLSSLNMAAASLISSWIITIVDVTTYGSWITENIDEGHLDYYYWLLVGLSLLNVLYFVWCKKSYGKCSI
Experiment: two-electrode voltage clamp, inward current in Xenopus oocytes
Type: cell-based
Conditions: 5 mM CsNO3 (Figure 5 legend, methods; text says KNO3); -120 mV

O=[N+]([O-])O [nitrate]
two-electrode voltage clamp, inward current in Xenopus oocytes: the nitrate-dependent inward currents were observed by KNO3 in NPF1.3-injected oocytes
